Source: patent US4578400A, “Therapeutic composition and method for treatment of cardiovascular diseases” (priority 1982, dated 1986)

Assays:
[1] = Lowering serum lipid levels in Triton-induced hyperlipidemic rats; format: in vivo, male Wistar rats; conditions: for inhibition rate, total cholesterol (serum) / inhibition rate, triglyceride (serum): 100 mg/kg oral, four times, against control, 10 hours after Triton WR-1339, *P < 0.05; for antilipidemic effects compared with Clofibrate (in words): 100 mg/kg, oral
Procedure: After 10 hours, blood samples were drawn to determine the serum levels of total cholesterol and triglyceride.

[2] = system: chloroform-induced arrhythmia (ventricular fibrillation); assay: Effect on chloroform-induced arrhythmia; format: in vivo, male ddy mice; conditions: for anti-arrhythmic potency compared with lidocaine (in words): 100 mg/kg oral vs lidocaine 10 mg/kg i.p.; for anti-arrhythmic effects (in words) / Percent occurrence of ventricular fibrillation: oral; for Percent occurrence of ventricular fibrillation: 15 min before chloroform, control 100
Text: When they stopped breathing, they were thoracotomized to examine the occurrence of ventricular fribrillation. The results are noted in Table 2 as percent occurrence of ventricular fibrillation.

Acute toxicity = conditions: one week observation
Text: Male ddy mice weighing about 25 g were divided into groups of 10 animals and orally administered once with 3 g/kg of 5--HDA, 5--HDA--Na, 5--HDAE, 5--HDA--DHP or δ-DL, or intraperitoneally injected once with 1 g/kg of said compounds.

[3] = system: ouabain induced arrhythmia; assay: Effect on ouabain induced arrhythmia; format: in vivo, male hartley guinea pigs; conditions: for relative time for extrasystole to occur / relative time for ventricular fibrillation to occur / relative time for cardiac arrest to occur: oral, 100 mg/kg, control = 100; for relative time for ventricular fibrillation to occur: *P < 0.05; for relative time for cardiac arrest to occur: *P < 0.05 where starred; for antiarrhythmic effects (in words): ouabain induced arrhythmia
Text: Effect on ouabain induced arrhythmia
The procedure described in Matsubara et al. (Folia Pharmacologica Japonica, 72, 557-571, 1976) was followed.
Male hartley guinea pigs were divided into groups of 8 animals and anesthetized with intraperitoneal urethane. Three groups were orally administered 5--HDA--Na, 5--HDAE and 5--HDA--DHP dissolved in distilled water. Another group was intravenously injected with 5--HDA--Na dissolved in physiological saline. One group was orally administered δ-DL emulsified in 5% aqueous arabic gum solution. One group was injected intravenously with lidocaine dissolved in physiological saline. For the respective routes of administration, control groups were administered the solvents used in administration of the test compounds. Thirty minutes after the oral administration and one minute after the intravenous injection, ouabain was infused into the jugular vein at a rate of 5 μg/kg/min until extrasystole, ventricular fibrillation and cardiac arrest appeared on a standard limb lead II of ECG. The results are shown in Table 3, with the time necessary for the respective symptoms to occur in the control groups taken as 100.

[4] = Solubility (physicochemical properties, Table 1)
[5] = Lowering serum cholesterol levels in hyperlipidemic rabbits; format: in vivo, male Japanese white rabbits; conditions: 100 mg/kg oral daily for 7 days
Text: Male Japanese white rabbits weighing about 2.5 kg were fed on a solid diet containing 1% cholesterol (RC-4, Nippon Crea Co., Ltd.) for 10 weeks until hypercholesterolemia fully developed. The rabbits were then divided into groups of 5 animals, and 5--HDA--Na or δ-DL was orally admininistered daily for 7 days, either as a solution or as an emulsion in 5% aqueous arabic gum. Three hours after the last administration, blood was drawn to determine the serum level of cholesterol.

[6] = molecular target: T1, 3-hydroxy-3-methylglutaryl coenzyme A (HMG-Co A) reductase (Rattus norvegicus, UniProt P51639); assay: Inhibition of HMG-CoA reductase activity; format: biochemical, rat (liver microsome); conditions: rat liver microsome; read-out: IC30 (amount necessary for inhibiting the enzymatic activity by 30%)
T1 sequence (P51639 1-887): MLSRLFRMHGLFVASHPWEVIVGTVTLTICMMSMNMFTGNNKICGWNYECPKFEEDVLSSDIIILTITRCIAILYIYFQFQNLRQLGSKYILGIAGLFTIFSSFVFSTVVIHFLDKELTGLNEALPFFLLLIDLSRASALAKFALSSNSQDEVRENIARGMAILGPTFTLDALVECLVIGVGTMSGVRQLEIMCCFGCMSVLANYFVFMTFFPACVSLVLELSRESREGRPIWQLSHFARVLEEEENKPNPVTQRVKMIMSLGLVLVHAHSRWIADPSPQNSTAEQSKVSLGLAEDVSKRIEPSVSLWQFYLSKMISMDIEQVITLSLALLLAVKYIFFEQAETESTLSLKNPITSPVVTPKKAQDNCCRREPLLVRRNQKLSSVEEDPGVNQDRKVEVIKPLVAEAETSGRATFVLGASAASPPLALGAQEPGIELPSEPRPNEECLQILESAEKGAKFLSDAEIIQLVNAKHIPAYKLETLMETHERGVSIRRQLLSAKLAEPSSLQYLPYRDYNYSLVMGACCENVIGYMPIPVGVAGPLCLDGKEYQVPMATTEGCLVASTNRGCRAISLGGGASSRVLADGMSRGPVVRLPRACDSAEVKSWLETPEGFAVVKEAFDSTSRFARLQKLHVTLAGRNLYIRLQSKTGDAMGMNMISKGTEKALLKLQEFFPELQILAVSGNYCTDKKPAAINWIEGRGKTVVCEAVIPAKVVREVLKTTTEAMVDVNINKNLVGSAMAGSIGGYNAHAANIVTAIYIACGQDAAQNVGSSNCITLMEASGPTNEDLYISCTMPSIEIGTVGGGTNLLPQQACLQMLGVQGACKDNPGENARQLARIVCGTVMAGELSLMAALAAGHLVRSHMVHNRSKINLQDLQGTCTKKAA
Text: Inhibition of the activity of 3-hydroxy-3-methylglutaryl coenzyme A (HMG-Co A) reductase

| SMILES | inhibition rate, total cholesterol (serum) [1] [%] | inhibition rate, triglyceride (serum) [1] [%] | antilipidemic effects compared with Clofibrate (in words) [1] | anti-arrhythmic potency compared with lidocaine (in words) [2] | anti-arrhythmic effects (in words) ([2]; 100 mg/kg) | Percent occurrence of ventricular fibrillation ([2]; 100 mg/kg, *P < 0.05) | acute toxicity: abnormality (Acute toxicity; 1 g/kg intraperitoneal once) | acute toxicity: death (Acute toxicity; 1 g/kg intraperitoneal once) | acute toxicity: abnormality (Acute toxicity; 3 g/kg oral once) | acute toxicity: death (Acute toxicity; 3 g/kg oral once) | relative time for extrasystole to occur [3] | relative time for ventricular fibrillation to occur [3] | relative time for cardiac arrest to occur [3] | antiarrhythmic effects (in words) [3] | solubility in acetone [4] | solubility in chloroform [4] | solubility in methanol [4] | solubility in water [4] | solubility in benzene [4] | also measured |
| --- | --- | --- | --- | --- | --- | --- | --- | --- | --- | --- | --- | --- | --- | --- | --- | --- | --- | --- | --- | --- |
| CCCCCC(O)CCCC(=O)OCC(O)CO (stereo not drawn) [5-HDA-DHP, 2',3'-dihydroxy-propyl-5-hydroxydecanoate] | 19 | 18 | equipotent to or stronger than the effect of the known anti-lipidemic agent, Clofibrate | more potent than lidocaine | significant anti-arrhythmic effects | 20 | no abnormality occurred | no animal died | no abnormality occurred | no animal died | 193 | 139 | 122 | significant antiarrhythmic effects | easily | easily | easily | soluble | – | – |
| CCCCCC(O)CCCC(=O)O (stereo not drawn) [5-HDA, 5-hydroxy-decanoic acid] | – | – | – | more potent than lidocaine | significant anti-arrhythmic effects | 30 | no abnormality occurred | no animal died | no abnormality occurred | no animal died | – | – | – | – | easily | easily | easily | sparingly | easily | Percent occurrence of ventricular fibrillation ([2]; 50 mg/kg): 60 |
| CCCCCC1CCCC(=O)O1 (stereo not drawn) [δ-DL, δ-decalactone] | 23 | 11 | equipotent to or stronger than the effect of the known anti-lipidemic agent, Clofibrate | more potent than lidocaine | significant anti-arrhythmic effects | 30 | no abnormality occurred | no animal died | no abnormality occurred | no animal died | 157 | 137 | 140 | significant antiarrhythmic effects | easily | easily | easily | insoluble | easily | solubility in hexane ([4]; hexane): easily; serum level of total cholesterol (in words) [5]: lowered the serum level of total cholesterol; Total serum cholesterol ([5]; 3 h after last administration, control 1,394, *P < 0.05): 1,141 mg/dl |
| CCOC(=O)C(C)(C)Oc1ccc(Cl)cc1 [Clofibrate, reference compound] | 14 | 16 | – | – | – | – | – | – | – | – | – | – | – | – | – | – | – | – | – | – |
| CC[C@H](C)C(=O)O[C@H]1CCC=C2C=C[C@H](C)[C@H](CC[C@@H]3C[C@@H](O)CC(=O)O3)[C@H]21 [Compactin, reference compound] | – | – | – | – | – | – | – | – | – | – | – | – | – | – | – | – | – | – | – | IC30 [6]: 30 µM |
| CCCCCC(O)CCCC(=O)OCC (stereo not drawn) [5-HDAE, Ethyl-5-hydroxy-decanoate] | 19 | 17 | equipotent to or stronger than the effect of the known anti-lipidemic agent, Clofibrate | more potent than lidocaine | significant anti-arrhythmic effects | 30 | no abnormality occurred | no animal died | no abnormality occurred | no animal died | 151 | 146 | 132 | significant antiarrhythmic effects | easily | easily | easily | sparingly | easily | – |
